# Source: ChEMBL document CHEMBL1201862, “PubChem BioAssay data set” (2004)
# Active and inactive are the calls of the source.
# Columns and labels:
# [1] = cytotoxicity in HPDE-C7 cells, cell-based, fluorescence, HTS (AID 430); format: functional; details: Homo sapiens
# [2] = cytotoxicity in KRAS-transformed pancreatic duct cells, primary screen, cell-based, fluorescence, HTS (AID 431); format: functional; details: Homo sapiens;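 also: cell line used: HPDE-C7K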
# [3] = NIH-3T3 fibroblast cytotoxicity, dose response, cytotoxicity control, cell-based, fluorescence, Alamar Blue, secondary assay (AID 2327); format: functional;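 also: NIH-3T3 mouse fibroblasts cultured with fluconazole at 8 µg/mL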
# [4] = C. albicans growth with fluconazole, confirmation, fluorescence, retest (AID 2467); format: functional, cell-based
# [5] = Luminescent dose response cell-based high throughput screening assay for inhibitors of the Janus kinase 2 mutant JAK2V617F. [Related pubchem assays: 1446 (Primary screen.), 1521 (Confirmation assay.), 1486 (Counter screen.)]; format: functional
# [6] = test system: Vero; assay: cells; format: functional; details: Chlorocebus sabaeus
# [7] = M. tuberculosis H37Rv growth inhibitors, H37Rv strain (AID 1626); format: functional
# [8] = biological target: T1, Hexokinase HKDC1 (Homo sapiens, UniProt Q2TB90); assay: HKDC1 hexokinase inhibitors, dose response, biochemical, W721R variant (AID 504729); format: functional
# T1 sequence (Q2TB90 whole entry): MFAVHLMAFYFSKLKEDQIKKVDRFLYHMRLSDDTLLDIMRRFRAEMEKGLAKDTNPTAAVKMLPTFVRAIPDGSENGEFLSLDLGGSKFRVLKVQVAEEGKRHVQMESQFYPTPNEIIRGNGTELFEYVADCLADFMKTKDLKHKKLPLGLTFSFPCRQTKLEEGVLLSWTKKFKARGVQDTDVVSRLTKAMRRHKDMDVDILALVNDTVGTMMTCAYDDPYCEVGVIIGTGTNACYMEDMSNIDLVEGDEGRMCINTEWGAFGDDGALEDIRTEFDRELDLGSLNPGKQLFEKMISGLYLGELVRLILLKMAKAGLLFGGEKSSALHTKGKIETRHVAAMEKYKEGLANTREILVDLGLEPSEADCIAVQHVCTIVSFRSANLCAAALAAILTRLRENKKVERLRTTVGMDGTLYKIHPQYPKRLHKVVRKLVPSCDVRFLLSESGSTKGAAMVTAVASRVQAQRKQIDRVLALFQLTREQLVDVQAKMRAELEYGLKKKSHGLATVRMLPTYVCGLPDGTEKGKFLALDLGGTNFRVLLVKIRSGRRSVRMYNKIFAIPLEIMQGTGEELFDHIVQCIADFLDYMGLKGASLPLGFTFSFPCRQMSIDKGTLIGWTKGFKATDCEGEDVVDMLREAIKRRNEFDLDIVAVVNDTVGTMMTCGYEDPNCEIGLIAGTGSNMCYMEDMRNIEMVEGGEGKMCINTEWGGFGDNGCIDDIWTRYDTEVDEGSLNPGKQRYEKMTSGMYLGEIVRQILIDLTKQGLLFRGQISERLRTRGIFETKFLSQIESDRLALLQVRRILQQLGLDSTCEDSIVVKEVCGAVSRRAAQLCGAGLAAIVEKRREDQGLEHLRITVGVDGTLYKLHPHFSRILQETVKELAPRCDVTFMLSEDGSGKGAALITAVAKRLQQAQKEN
# [9] = biological target: T2, Polyadenylate-binding protein 1 (Homo sapiens, UniProt P11940); assay: PABP1 MLLE–PAM2 interaction inhibitors, dose response, miRNA deadenylation inhibitor project, biochemical, fluorescence polarization, Cy5-PAM2 peptide, secondary (AID 602260); format: functional; details: read-out: IC50_Mean
# T2 sequence (P11940 whole entry): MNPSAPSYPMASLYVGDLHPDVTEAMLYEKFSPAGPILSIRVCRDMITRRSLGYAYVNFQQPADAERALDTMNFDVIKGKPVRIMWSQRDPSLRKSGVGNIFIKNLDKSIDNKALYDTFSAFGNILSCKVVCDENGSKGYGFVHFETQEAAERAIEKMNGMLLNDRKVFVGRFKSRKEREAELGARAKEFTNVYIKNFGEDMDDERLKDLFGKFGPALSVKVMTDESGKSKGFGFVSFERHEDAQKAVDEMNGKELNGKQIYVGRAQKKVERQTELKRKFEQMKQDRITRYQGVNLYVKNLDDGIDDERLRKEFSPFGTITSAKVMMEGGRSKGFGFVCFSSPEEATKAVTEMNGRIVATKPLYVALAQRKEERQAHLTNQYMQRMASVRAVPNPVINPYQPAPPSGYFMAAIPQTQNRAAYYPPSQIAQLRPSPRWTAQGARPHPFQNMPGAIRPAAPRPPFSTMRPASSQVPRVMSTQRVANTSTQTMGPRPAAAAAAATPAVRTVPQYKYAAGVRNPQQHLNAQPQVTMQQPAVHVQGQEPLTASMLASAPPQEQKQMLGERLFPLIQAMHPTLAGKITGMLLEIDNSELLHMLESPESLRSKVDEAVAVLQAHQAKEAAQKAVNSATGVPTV
# [10] = biological target: Beta-galactosidase (Escherichia coli, UniProt Q8VNN2); assay: beta-galactosidase enzyme inhibitors and activators, dose response, artefact control for CCR6 antagonist project, biochemical, E. coli enzyme, set 3 (AID 504712); format: functional
# Chain of Beta-galactosidase (Q8VNN2 whole entry): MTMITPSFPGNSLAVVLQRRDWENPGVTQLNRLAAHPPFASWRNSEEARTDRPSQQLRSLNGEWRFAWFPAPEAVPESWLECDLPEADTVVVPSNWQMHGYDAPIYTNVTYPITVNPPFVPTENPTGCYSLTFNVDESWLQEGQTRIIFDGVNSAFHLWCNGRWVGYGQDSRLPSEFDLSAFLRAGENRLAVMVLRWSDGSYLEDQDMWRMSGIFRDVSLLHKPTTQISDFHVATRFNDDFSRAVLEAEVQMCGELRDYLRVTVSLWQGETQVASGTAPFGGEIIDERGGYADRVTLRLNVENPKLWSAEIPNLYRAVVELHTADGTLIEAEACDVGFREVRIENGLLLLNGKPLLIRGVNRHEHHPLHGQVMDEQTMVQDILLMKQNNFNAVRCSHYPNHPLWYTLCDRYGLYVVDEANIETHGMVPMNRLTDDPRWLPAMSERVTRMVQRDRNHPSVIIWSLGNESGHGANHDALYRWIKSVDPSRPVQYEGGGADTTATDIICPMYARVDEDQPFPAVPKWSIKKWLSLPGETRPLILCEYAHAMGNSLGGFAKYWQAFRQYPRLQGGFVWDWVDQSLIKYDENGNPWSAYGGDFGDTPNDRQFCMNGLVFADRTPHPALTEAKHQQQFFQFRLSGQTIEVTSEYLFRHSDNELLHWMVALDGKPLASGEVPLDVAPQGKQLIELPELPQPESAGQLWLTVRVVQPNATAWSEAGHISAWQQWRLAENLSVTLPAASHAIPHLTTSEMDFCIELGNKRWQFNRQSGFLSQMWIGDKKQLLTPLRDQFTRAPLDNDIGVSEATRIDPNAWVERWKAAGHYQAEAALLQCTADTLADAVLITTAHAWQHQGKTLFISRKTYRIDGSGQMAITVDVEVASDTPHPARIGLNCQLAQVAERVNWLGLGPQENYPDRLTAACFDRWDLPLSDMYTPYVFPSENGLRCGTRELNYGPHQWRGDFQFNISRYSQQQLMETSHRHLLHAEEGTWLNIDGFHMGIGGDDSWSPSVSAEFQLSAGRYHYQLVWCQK
# [11] = biological target: T2, Polyadenylate-binding protein 1; assay: PABP1 MLLE–PAM2 binding inhibitor potency, dose response, biochemical, fluorescence polarization, FITC-PAM2 peptide (AID 602259); format: functional; details: read-out: IC50_Mean
# [12] = biological target: Genome polyprotein (dengue virus type 2, UniProt P29990); assay: Dengue-2 NS5 methyltransferase inhibitors, primary screen, biochemical, confirmation dose response (AID 588689); format: functional
# Chain of Genome polyprotein (P29990 2492-3391 limits assumed): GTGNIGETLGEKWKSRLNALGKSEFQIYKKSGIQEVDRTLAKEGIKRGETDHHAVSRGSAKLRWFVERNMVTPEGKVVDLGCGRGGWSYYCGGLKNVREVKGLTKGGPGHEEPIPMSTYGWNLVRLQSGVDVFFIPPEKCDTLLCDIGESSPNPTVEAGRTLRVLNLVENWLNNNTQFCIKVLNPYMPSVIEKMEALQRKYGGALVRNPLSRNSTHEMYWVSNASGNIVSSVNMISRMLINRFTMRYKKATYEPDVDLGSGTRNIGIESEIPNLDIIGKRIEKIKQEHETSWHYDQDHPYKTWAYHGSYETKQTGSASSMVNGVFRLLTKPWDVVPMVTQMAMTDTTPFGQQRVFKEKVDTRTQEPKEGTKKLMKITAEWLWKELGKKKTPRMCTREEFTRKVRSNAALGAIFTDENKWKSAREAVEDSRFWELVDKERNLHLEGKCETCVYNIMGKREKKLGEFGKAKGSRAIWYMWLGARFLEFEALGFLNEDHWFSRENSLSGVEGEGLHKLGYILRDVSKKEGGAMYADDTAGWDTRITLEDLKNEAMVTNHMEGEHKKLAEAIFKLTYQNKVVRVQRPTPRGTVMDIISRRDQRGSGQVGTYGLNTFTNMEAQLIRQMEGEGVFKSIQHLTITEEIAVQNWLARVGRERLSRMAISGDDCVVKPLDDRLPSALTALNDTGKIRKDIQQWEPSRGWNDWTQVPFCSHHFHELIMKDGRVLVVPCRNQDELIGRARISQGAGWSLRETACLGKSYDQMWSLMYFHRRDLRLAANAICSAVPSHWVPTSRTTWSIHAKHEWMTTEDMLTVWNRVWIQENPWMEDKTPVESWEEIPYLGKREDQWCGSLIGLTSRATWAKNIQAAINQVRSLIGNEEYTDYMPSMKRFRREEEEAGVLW
# [13] = test system: Vero; assay: Vero cell cytotoxicity, cytotoxicity control for flavivirus capping enzyme inhibitors (AID 588742); format: functional; details: Chlorocebus sabaeus
# [14] = biological target: Induced myeloid leukemia cell differentiation protein Mcl-1 (Homo sapiens, UniProt Q07820); format: functional
# Chain of Induced myeloid leukemia cell differentiation protein Mcl-1 (Q07820 whole entry): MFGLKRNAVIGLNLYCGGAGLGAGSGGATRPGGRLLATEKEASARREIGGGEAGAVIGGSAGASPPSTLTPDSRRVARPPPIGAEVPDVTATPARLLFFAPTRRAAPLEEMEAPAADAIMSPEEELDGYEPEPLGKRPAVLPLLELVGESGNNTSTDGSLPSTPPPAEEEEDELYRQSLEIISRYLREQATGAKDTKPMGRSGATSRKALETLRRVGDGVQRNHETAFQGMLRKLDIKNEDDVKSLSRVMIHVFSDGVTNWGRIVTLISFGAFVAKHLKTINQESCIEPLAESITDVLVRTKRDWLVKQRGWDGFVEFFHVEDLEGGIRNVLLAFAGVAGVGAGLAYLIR
# [15] = biological target: T3, Heat shock factor protein 1 (Mus musculus, UniProt P38532); assay: HSF1 potentiators in luciferase reporter cells, confirmation, cell-based, NIH3T3, luminescence, dose retest (AID 435004); format: functional;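 also: stress induced by proteasome inhibitor MG132 added 30 min after compound; luciferase reporter driven by HSF1 response element in NIH3T3 cells; actives raise luminescence as potentiators of the MG132 stress response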
# T3 sequence (P38532 whole entry): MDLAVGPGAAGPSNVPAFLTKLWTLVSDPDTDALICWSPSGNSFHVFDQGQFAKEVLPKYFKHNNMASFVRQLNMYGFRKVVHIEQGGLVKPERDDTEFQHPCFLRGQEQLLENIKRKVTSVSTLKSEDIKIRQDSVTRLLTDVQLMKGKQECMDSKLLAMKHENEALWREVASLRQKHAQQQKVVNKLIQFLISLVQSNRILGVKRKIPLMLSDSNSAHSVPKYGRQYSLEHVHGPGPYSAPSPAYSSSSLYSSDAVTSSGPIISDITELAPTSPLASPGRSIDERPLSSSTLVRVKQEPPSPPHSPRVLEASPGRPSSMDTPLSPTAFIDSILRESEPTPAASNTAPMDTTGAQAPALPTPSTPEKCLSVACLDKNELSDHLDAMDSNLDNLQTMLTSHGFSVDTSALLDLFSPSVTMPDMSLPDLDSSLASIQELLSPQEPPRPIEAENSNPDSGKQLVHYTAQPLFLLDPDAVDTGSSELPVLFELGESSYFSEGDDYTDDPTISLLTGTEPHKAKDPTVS
# [16] = biological target: T4, Replicative DNA helicase DnaB (Mycobacterium tuberculosis, UniProt P9WMR3); assay: DnaB intein splicing inhibitors, dose response, biochemical, cell-free fluorescence (AID 449749); format: functional
# T4 sequence (P9WMR3 whole entry): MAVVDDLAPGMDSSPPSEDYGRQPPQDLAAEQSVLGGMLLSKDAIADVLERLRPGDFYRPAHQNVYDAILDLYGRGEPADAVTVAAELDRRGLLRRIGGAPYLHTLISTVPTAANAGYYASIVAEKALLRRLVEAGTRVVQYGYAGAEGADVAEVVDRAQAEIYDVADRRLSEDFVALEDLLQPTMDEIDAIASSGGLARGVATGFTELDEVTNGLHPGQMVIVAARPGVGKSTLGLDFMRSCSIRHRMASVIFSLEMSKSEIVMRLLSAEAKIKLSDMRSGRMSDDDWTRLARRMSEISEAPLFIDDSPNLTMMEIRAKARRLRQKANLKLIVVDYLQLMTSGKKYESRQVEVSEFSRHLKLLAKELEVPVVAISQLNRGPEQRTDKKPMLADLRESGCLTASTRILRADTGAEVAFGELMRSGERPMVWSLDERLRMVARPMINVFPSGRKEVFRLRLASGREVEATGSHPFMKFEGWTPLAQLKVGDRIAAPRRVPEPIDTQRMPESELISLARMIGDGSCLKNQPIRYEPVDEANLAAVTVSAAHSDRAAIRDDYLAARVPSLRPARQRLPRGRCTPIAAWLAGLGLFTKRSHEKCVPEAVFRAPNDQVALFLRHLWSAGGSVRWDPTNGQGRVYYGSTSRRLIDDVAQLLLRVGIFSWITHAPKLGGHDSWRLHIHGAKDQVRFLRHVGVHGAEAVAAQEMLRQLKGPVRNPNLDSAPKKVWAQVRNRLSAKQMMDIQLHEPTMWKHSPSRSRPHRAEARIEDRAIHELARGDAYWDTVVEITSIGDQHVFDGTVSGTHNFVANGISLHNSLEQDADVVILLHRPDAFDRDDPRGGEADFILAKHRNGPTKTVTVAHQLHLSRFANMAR
# [17] = biological target: T5, Protein RecA (Mycobacterium tuberculosis, UniProt P9WHJ3); assay: Fluorescence Cell-Free Homogeneous Dose Retest to Identify Inhibitors of RecA-Intein Splicing Activity. [Related pubchem assays (depositor defined):AID2097, AID2223, AID489010, AID492950]; format: functional
# T5 sequence (P9WHJ3 whole entry): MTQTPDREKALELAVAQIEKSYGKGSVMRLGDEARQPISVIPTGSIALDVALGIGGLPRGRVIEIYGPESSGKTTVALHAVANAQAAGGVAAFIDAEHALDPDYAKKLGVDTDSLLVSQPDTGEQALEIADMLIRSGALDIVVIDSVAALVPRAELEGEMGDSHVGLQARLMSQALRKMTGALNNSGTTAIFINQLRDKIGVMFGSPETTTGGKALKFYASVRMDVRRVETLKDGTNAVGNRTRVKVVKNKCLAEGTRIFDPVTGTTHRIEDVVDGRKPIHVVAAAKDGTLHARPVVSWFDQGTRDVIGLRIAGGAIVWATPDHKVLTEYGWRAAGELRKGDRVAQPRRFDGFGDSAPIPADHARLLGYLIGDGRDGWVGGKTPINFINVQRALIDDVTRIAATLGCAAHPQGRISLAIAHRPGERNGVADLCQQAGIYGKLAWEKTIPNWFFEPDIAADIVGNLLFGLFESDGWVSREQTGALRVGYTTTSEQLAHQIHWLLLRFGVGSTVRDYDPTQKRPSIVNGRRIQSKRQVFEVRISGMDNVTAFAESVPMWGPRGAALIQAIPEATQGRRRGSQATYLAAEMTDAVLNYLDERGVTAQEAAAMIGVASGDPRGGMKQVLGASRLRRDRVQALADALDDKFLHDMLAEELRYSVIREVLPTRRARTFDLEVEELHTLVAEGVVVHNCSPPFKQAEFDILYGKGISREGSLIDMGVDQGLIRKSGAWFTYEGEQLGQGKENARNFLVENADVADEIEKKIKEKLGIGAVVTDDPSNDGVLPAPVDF
# [18] = biological target: T6, Estrogen receptor (Homo sapiens, UniProt P03372);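 also: potency for inhibiting coactivator peptide recruitment to the receptor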
# T6 sequence (P03372 whole entry): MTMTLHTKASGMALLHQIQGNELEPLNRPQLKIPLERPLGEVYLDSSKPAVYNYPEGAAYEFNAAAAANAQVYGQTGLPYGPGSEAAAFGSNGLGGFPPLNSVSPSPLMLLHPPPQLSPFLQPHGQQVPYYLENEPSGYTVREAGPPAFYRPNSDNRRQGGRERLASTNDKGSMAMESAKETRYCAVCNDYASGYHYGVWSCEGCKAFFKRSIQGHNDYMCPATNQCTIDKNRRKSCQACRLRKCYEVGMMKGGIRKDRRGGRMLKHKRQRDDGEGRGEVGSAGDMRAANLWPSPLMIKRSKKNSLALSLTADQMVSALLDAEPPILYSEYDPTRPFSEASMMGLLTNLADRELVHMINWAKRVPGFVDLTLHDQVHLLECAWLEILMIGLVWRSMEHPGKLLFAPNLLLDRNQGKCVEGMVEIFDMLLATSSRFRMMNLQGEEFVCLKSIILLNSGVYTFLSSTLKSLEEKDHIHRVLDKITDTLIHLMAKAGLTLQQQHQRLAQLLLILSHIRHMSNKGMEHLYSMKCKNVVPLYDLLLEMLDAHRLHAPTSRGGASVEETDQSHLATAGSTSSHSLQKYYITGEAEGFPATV
# [19] = biological target: DNA dC->dU-editing enzyme APOBEC-3A (Homo sapiens, UniProt P31941); assay: APOBEC3A DNA deaminase inhibitors, dose response, biochemical (AID 504722); format: functional
# Chain of DNA dC->dU-editing enzyme APOBEC-3A (P31941 whole entry): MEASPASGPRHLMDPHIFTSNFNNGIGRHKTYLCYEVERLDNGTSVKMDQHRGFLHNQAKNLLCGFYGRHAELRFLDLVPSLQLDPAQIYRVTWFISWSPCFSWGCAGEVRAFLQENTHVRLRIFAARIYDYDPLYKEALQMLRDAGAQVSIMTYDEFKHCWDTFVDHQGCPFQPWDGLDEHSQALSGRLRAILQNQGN
# [20] = biological target: DNA dC->dU-editing enzyme APOBEC-3G (Homo sapiens, UniProt Q9HC16); assay: Dose Response confirmation of small molecule APOBEC3G DNA Deaminase Inhibitors via a fluorescence-based single-stranded DNA deaminase assay. [Related pubchem assays (depositor defined):AID493012, AID493028]; format: functional
# Chain of DNA dC->dU-editing enzyme APOBEC-3G (Q9HC16 whole entry): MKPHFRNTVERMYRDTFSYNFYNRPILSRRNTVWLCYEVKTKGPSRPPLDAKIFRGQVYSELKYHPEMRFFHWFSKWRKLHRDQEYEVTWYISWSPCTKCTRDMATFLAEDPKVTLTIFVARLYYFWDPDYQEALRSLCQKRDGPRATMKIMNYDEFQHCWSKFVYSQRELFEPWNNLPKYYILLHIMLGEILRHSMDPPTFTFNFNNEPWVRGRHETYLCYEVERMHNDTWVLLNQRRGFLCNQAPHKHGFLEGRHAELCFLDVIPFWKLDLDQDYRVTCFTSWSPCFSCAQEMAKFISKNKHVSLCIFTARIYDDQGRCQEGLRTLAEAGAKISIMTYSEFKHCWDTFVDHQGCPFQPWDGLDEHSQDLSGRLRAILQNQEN
# [21] = biological target: Prothrombin (Homo sapiens, UniProt P00734); assay: Thrombin 1536 HTS Dose Response Confirmation. [Related pubchem assays: 1046 (Thrombin 1536 HTS; hits were confirmed in this assay)]; format: functional
smiles,measurement,setting,value
Cc1ccc(S(=O)(=O)c2cc3c(=O)n4ccccc4nc3n(Cc3ccco3)c2=N)cc1C,EC50,[1],18.8 µM (active)
same,EC50,[2],17.9 µM (active)
COc1ccccc1C(C[N+](=O)[O-])c1c(N)n(C)c(=O)n(C)c1=O (stereo unspecified),EC50,[3],9.19 µM (active)
same,EC50,[4],6.01 µM (active)
same,IC50,[5],1.61 µM (active)
same,CC50,[6],9.01 µM (active)
Cc1ccc(C(=O)/C=C\Nc2ccc(C)c(C)c2)cc1,IC50,[7],> 100 µM (active)
Cc1ccccc1N1C(=O)NC(=O)/C(=C/Nc2ccc3c(c2)OCO3)C1=O,IC50,[7],> 100 µM (active)
CCc1sc(N)nc1-c1ccccc1,IC50,[7],> 100 µM (active)
CCOC(=O)/C=C(\C)Sc1cc(O)c2ccccc2c1O,IC50,[8],11.8 µM (active)
same,IC50,[9],> 66 µM (inactive)
same,IC50,[10],> 66.6 µM (inactive)
same,IC50,[11],> 66 µM (inactive)
same,IC50,[12],5.24 µM (active)
same,CC50,[13],22 µM (active)
same,IC50,[14],10.5 µM (active)
COC1(OC)C(/C=C/c2ccc(Cl)cc2)C(C#N)(C#N)C1(OC)OC (stereo unspecified),EC50,[15],33.6 µM (active)
same,AC50,[16],33.8 µM (active)
same,EC50,[17],2.45 µM (active)
same,IC50,[5],1.76 µM (active)
Cc1ccc(S(=O)(=O)N2CCN(C(=O)CSc3ncc(C(F)(F)F)cc3Cl)CC2)cc1,IC50,[18],> 50 µM (not active)
CC12CNCC(C)(CNC1)C2O (stereo unspecified),EC50,[1],> 20 µM (not active)
same,EC50,[2],> 20 µM (not active)
CCc1ccc(-n2c(=O)c3ccccc3n3c(S)nnc23)cc1.CN(C)C=O,IC50,[19],> 100 µM (inactive)
same,IC50,[20],4.9 µM (active)
Oc1ccc(O)c(Cc2nc3ccccc3[nH]2)c1,IC50,[8],3.45 µM (active)
O=C(Oc1oc(-c2ccco2)nc1/C=N/c1ccccc1)c1ccco1,EC50,[1],> 20 µM (not active)
same,IC50,[21],1.32 µM (active)
same,EC50,[2],> 20 µM (not active)
N#Cc1cc2c([nH]c1=S)CCCC2,IC50,[19],> 100 µM (inactive)
same,IC50,[20],5.16 µM (active)
